Results taken from ChEMBL document CHEMBL4765394, “From irreversible to reversible covalent inhibitors: Harnessing the andrographolide scaffold for anti-inflammatory action” (Eur J Med Chem, 2020).
The source made the active and inactive calls. The calls are words filed in the database; no cut-off is given here.

How the values were obtained:
[1] = Aqueous stability of compound; format: physicochemical; settings: buffer
RAW264.7 [2] = test: Antiinflammatory activity in mouse RAW264.7 cells assessed as inhibition of LPS-induced IL6 release at 5 to 10 uM preincubated for 1 hr followed by LPS stimulation and measured after 24 hrs by ELISA; format: functional, cell-based; settings: dose 5-10 µM, time 25.0 hrs
RAW264.7 [3] = test: Cytotoxicity against mouse RAW264.7 cells assessed as reduction cell viability at 20 uM measured after 24 hrs by Celltiter-glo assay; format: cell-based; settings: raw264.7, 24 h
RAW264.7 [4] = test: Antiinflammatory activity in mouse RAW264.7 cells assessed as inhibition of LPS-induced TNFalpha release at 5 to 10 uM preincubated for 1 hr followed by LPS stimulation and measured after 4 hrs by ELISA; format: functional, cell-based; settings: dose 5-10 µM, time 5.0 hrs
RAW-Blue [5] = test: Inhibition of LPS-induced NF-kappaB activity in mouse RAW-Blue cells assessed as reduction in SEAP reporter activity at 5 to 20 uM preincubated for 1 hr followed by LPS stimulation and measured after 8 to 24 hrs by SEAP reporter gene assay; format: cell-based; settings: dose 5-20 µM, time 25.0 hrs
RAW-Blue [6] = test: Activation of NF-kappaB activity in mouse RAW-Blue cells assessed as increase in SEAP reporter activity at 5 to 20 uM measured after 24 hrs by SEAP reporter gene assay; format: cell-based; settings: filed as activator, dose 5-20 µM
RAW-Blue [7] = test: Activation of NF-kappaB activity in mouse RAW-Blue cells assessed as increase in SEAP reporter activity at 30 uM measured after 24 hrs in presence of p38 inhibitor SB203580 by SEAP reporter gene assay; format: cell-based
[8] = GSH reactivity in PBS assessed as GSH adduct formation measured up to 8 hrs by HPLC-MS analysis; format: ADME; settings: buffer
[9] = GSH reactivity in PBS assessed as GSH adduct formation by measuring half life by HPLC-MS analysis; format: ADME
[10] = Cytotoxicity against human L02 cells assessed as reduction in cell viability measured after 24 hrs by Celltiter-glo assay; format: cell-based
[11] = Cytotoxicity against HEK293 cells assessed as reduction in cell viability measured after 24 hrs by Celltiter-glo assay; format: cell-based; settings: human
RAW264.7 [12] = test: Antiinflammatory activity in BSO-treated mouse RAW264.7 cells assessed as inhibition of LPS-induced TNFalpha release at 2.5 to 10 uM preincubated for 1 hr followed by LPS stimulation and measured after 4 hrs by ELISA; format: functional, cell-based; settings: dose 2.5-10 µM, time 5.0 hrs
RAW264.7 [13] = test: Cytotoxicity against BSO-treated mouse RAW264.7 cells assessed as reduction cell viability measured after 24 hrs by Celltiter-glo assay; format: cell-based; settings: raw264.7, 24 h, dose 10-20 µM
RAW264.7 [14] = test: Activation of JNK phosphorylation in mouse RAW264.7 cells at 50 uM measured after 4 hrs by Western blot analysis; format: cell-based; settings: filed as activator
RAW264.7 [15] = test: Activation of JNK phosphorylation in BSO-treated mouse RAW264.7 cells at 50 uM measured after 4 hrs by Western blot analysis; settings: filed as activator
RAW264.7 [16] = test: Antiinflammatory activity in 2 hrs NAC-pretreated mouse RAW264.7 cells assessed as inhibition of LPS-induced TNFalpha release at 10 uM preincubated for 1 hr followed by LPS stimulation and measured after 4 hrs by ELISA relative to control; format: functional; settings: time 5 hrs
RAW264.7 [17] = test: Antiinflammatory activity in 4 hrs NAC-pretreated mouse RAW264.7 cells assessed as inhibition of LPS-induced TNFalpha release at 10 uM preincubated for 1 hr followed by LPS stimulation and measured after 4 hrs by ELISA relative to control; format: functional; settings: time 5 hrs
RAW264.7 [18] = test: Antiinflammatory activity in 24 hrs NAC-pretreated mouse RAW264.7 cells assessed as inhibition of LPS-induced TNFalpha release at 10 uM preincubated for 1 hr followed by LPS stimulation and measured after 4 hrs by ELISA relative to control; format: functional; settings: time 5 hrs
RAW264.7 [19] = test: Cytotoxicity against mouse RAW264.7 cells assessed as reduction cell viability at 5 to 50 uM measured after 24 hrs by Celltiter-glo assay; format: cell-based; settings: raw264.7, 24 h, dose 5-50 µM
RAW-Blue [20] = test: Inhibition of LPS-induced NF-kappaB activity in mouse RAW-Blue cells assessed as reduction in SEAP reporter activity at 5 to 20 uM preincubated for 1 hr followed by LPS stimulation and measured after 8 hrs by SEAP reporter gene assay; format: cell-based; settings: dose 5-20 µM, time 9.0 hrs
RAW-Blue [21] = test: Inhibition of LPS-induced NF-kappaB activity in mouse RAW-Blue cells assessed as reduction in SEAP reporter activity at 5 to 20 uM preincubated for 1 hr followed by LPS stimulation and measured after 24 hrs by SEAP reporter gene assay; format: cell-based; settings: dose 5-20 µM, time 25.0 hrs
[22] = GSH reactivity assessed as GSH adduct formation by measuring reduction in intracellular GSH level at 20 uM measured after 2 hrs by cell-based monochlorobimane fluorometric method; format: ADME; set-up: scale not given: the % may be the effect or the level left
[23] = biological target: T1, Nuclear factor NF-kappa-B p105 subunit (Homo sapiens) (UniProt P19838); test: Inhibition of DNA binding activity of human NF-kappaB p50 at 200 uM measured after 1 hr by ELISA
T1 sequence (whole entry): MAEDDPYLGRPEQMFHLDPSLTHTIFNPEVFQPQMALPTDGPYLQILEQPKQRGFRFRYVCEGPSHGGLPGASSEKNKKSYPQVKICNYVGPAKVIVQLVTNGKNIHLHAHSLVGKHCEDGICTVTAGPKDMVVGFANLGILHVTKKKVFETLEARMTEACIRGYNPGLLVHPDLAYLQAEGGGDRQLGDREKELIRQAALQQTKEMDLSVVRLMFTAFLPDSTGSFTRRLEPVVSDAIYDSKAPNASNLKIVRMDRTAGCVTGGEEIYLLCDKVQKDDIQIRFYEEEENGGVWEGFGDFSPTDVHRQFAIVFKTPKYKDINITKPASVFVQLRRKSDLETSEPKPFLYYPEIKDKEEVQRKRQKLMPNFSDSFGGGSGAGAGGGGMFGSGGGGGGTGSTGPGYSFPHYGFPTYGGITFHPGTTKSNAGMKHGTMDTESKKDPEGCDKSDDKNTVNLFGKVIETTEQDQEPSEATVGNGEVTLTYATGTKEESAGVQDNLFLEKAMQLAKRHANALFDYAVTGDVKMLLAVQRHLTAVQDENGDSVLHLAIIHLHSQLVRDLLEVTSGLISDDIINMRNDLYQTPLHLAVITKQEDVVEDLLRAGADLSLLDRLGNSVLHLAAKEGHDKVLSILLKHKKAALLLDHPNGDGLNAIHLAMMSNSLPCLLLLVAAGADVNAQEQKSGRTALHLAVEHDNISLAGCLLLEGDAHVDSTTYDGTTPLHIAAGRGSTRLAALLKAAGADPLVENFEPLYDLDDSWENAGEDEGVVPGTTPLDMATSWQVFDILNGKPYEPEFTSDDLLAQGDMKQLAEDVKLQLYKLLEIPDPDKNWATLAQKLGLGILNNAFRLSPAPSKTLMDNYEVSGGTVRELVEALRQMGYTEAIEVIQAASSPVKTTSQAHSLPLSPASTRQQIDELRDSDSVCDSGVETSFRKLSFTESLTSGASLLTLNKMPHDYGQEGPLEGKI

SMILES	Stabilty [1]	inhibition (RAW264.7 [2])	inhibition (RAW264.7 [4])	further results
C=C1CC[C@@H]2[C@](C)(CO)[C@H](O)CC[C@@]2(C)[C@@H]1C/C=C1/C(=O)OC[C@H]1O [ANDROGRAPHOLIDE]	Stable	Active	Active	Activity (RAW264.7 [3]): Toxic; inhibition (RAW-Blue [5]): inactive; Activity (RAW-Blue [6]): Active; Activity (RAW-Blue [7]): inactive; K [8]: 2.44e-05 M⁻¹ s⁻¹; t1/2 [9]: 5.46 h; CC50 at 24 h [10]: 14.7 µM; CC50 at 24 h [11]: 26.2 µM; inhibition (RAW264.7 [12]): Active; CC50 (RAW264.7 [13]): 10 µM; Activity (RAW264.7 [14]): Active; Activity (RAW264.7 [15]): Active; inhibition at 10 µM (RAW264.7 [16]): 17%; inhibition at 10 µM (RAW264.7 [17]): 30%; inhibition at 10 µM (RAW264.7 [18]): 62%
C=C1CC[C@@H]2[C@](C)(CO)[C@H](O)CC[C@@]2(C)[C@@H]1C/C=C1\SC(=O)NC1=O	Stable	inactive	–	Activity (RAW264.7 [19]): Non-Toxic
C=C1CC[C@@H]2[C@](C)(CO)[C@H](O)CC[C@@]2(C)[C@@H]1C/C=C1/C(=O)Nc2ccccc21	Stable	inactive	inactive	–
C=C1CC[C@@H]2[C@](C)(CO)[C@H](O)CC[C@@]2(C)[C@@H]1C/C=C1\SC(=S)NC1=O	Stable	inactive	inactive	Activity (RAW264.7 [19]): Non-Toxic
C=C(CO)C(=O)OC	–	inactive	inactive	–
C=C1CC[C@@H]2[C@](C)(CO)[C@H](O)CC[C@@]2(C)[C@@H]1C/C=C1\C[C@H](OC)OC1=O	Stable	inactive	–	–
C=C1CC[C@@H]2[C@](C)(CO)[C@H](O)CC[C@@]2(C)[C@@H]1C/C=C1\CCOC1=O	Stable	inactive	inactive	CC50 (RAW264.7 [13]): > 30 µM
C=C1CC[C@@H]2[C@](C)(CO)[C@H](O)CC[C@@]2(C)[C@@H]1C/C=C1/C=COC1=O	Stable	Active	Active	inhibition (RAW-Blue [20]): Active; inhibition (RAW-Blue [21]): inactive; Activity [22]: > 70%
C=C1CC[C@@H]2[C@](C)(CO)[C@H](O)CC[C@@]2(C)[C@@H]1CC=O	Stable	inactive	inactive	–
C=C1CC[C@@H]2[C@](C)(CO)[C@H](O)CC[C@@]2(C)[C@@H]1C/C=C1/CCOC1=O	Stable	inactive	–	–
CC(=O)CCC[C@@H]1[C@@H](C)CC[C@@H]2[C@](C)(CO)[C@H](O)CC[C@]21C	–	–	–	inhibition [23]: inactive
C=C1CC[C@@H]2[C@](C)(CO)[C@H](O)CC[C@@]2(C)[C@@H]1C/C=C/C(=O)OCC	Stable	inactive	inactive	–
C=C1CC[C@@H]2[C@](C)(CO)[C@H](O)CC[C@@]2(C)[C@@H]1C/C=C\C#N	Stable	inactive	–	–
